In ChEMBL document CHEMBL1128355, “Benzophenone derivatives: a novel series of potent and selective inhibitors of human immunodeficiency virus type 1 reverse transcriptase” (J Med Chem, 1995):
≈ marks a conversion by molar mass, not a printed value.

How the values were obtained:
[1] = target: Human immunodeficiency virus type 1 reverse transcriptase (Human immunodeficiency virus 1, UniProt Q72547); assay: Inhibitory activity against HIV-1 reverse transcriptase
C8166 [2] = assay: Inhibitory activity against P24 antigen formation in infected C8166 cells; format: functional, cell-based; details: Homo sapiens
[3] = Half life period in mouse S9 liver preparation; format: ADME; details: liver S9 fraction
[4] = system: Human immunodeficiency virus 1; assay: Antiviral activity against HIV-1 (strain RF) infected MT-4 cells; format: functional, organism-based; details: Human immunodeficiency virus 1, MT4
[5] = Half life period in mouse serum; format: ADME, organism-based
C8166 [6] = assay: Inhibitory activity against syncytia formation in infected C8166 cells; format: functional, cell-based; details: Homo sapiens
[7] = Toxicity against uninfected MT-4 cells; format: cell-based, MT4; details: human
MT4 [8] = assay: Antiviral activity against HIV-1 resistant to 2-(2-Benzoyl-4-chloro-phenyl)-N-[4-(3-dimethylamino-propoxy)-2-methyl-phenyl]-acetamide in MT-4 cells; format: functional, cell-based; details: Homo sapiens
MT4 [9] = assay: Cytotoxicity against uninfected MT-4 cells; format: functional, cell-based, Homo sapiens
[10] = Homo sapiens, MT4, read-out: IC50

SMILES	IC50 [1] [µM]	IC50 (C8166 [2]) [µg/mL]	half-life [3] [h]	IC50 [4] [µg/mL]	half-life [5] [h]	IC50 (C8166 [6]) [µg/mL]	IC50 [7] [µg/mL]	IC50 (MT4 [8]) [µg/mL]	IC50 (MT4 [9]; [10]) [µg/mL]	IC50 (MT4 [9]; mt4) [µg/mL]
O=C(c1ccccc1)c1cc(Cl)ccc1OCC(=O)N1CCc2ccccc2C1	0.0148	0.016 (≈ 0.0394 µM)	2.8	0.014 (≈ 0.0345 µM)	1.2	0.011 (≈ 0.0271 µM)	> 0.5			
O=C(COc1ccc(-n2ccnc2)cc1C(=O)c1ccccc1)Nc1ccccc1	> 25.2			> 10			10 (≈ 25.2 µM)			
CCN(CC)CCOc1ccc(NC(=O)COc2ccccc2C(=O)c2ccc(F)cc2)cc1	21.5	< 0.05		0.75 (≈ 1.61 µM)		0.016 (≈ 0.0344 µM)	> 0.5			
O=C(COc1ccc(Cl)cc1C(O)c1ccccc1)Nc1ccccc1 (configuration not stated)	> 272									
O=C(COc1ccc(Cl)cc1C(=O)c1ccccc1)NC1CCCCC1	39									
c1nc2cnncc2[nH]1				0.004 (≈ 0.0333 µM)				0.5 (≈ 4.16 µM)	> 1	
CCN(CC)CCOc1ccc(NC(=O)COc2ccccc2C(=O)c2ccc(OC)cc2)cc1	14.3	0.18 (≈ 0.378 µM)		0.44 (≈ 0.923 µM)		0.34 (≈ 0.713 µM)	5 (≈ 10.5 µM)			
O=C(COc1ccc(Cl)cc1C(=O)C1CCCC1)Nc1ccccc1	5.03			0.22 (≈ 0.615 µM)			> 100			
CCN(CC)CCOc1ccc(NC(=O)COc2ccccc2C(=O)c2ccccc2)cc1	5.15	0.0015 (≈ 0.00336 µM)		< 0.001		0.005 (≈ 0.0112 µM)	> 0.5			
O=C(c1ccccc1)c1cc(Cl)ccc1OCc1nc2ccccc2[nH]1	1.41	0.032 (≈ 0.0882 µM)	> 6	0.31 (≈ 0.854 µM)	> 6	0.052 (≈ 0.143 µM)	> 0.5			
O=C(COc1ccc(Cl)c(Cl)c1C(=O)c1ccccc1)Nc1ccccc1	> 250									
O=C(COc1ccc(F)cc1C(=O)c1ccccc1)Nc1ccccc1	0.00859	0.006 (≈ 0.0172 µM)		0.09 (≈ 0.258 µM)		0.014 (≈ 0.0401 µM)	10 (≈ 28.6 µM)			
O=C(COc1cc(Cl)c(Cl)cc1C(=O)c1ccccc1)Nc1ccccc1	0.035			0.023 (≈ 0.0575 µM)			100 (≈ 250 µM)			
O=C(c1ccccc1)c1cc(Cl)ccc1OC/C=C/c1ccccc1	> 287									
CCc1cc(NCc2nc3c(Cl)ccc(Cl)c3o2)c(O)nc1C [L-697661]				0.0017 (≈ 0.00483 µM)				0.0023 (≈ 0.00653 µM)	100 (≈ 284 µM)	100 (≈ 284 µM)
Nc1ccn([C@@H]2CS[C@H](CO)O2)c(=O)n1 [LAMIVUDINE]				0.043 (≈ 0.188 µM)				0.048 (≈ 0.209 µM)	> 100	
Cc1ccnc2c1NC(=O)c1cccnc1N2C1CC1 [NEVIRAPINE]				0.01 (≈ 0.0376 µM)				0.22 (≈ 0.826 µM)	> 10	
CC(C)(C)NC(=O)[C@@H]1C[C@@H]2CCCC[C@@H]2CN1C[C@@H](O)[C@H](Cc1ccccc1)NC(=O)[C@H](CC(N)=O)NC(=O)c1ccc2ccccc2n1 [SAQUINAVIR]				0.028 (≈ 0.0417 µM)				0.0038 (≈ 0.00566 µM)	> 1	

Further lines, with some results ahead:

IC50 [1] [µM]	IC50 (C8166 [2]) [µg/mL]	half-life [3] [h]	IC50 [4] [µg/mL]	half-life [5] [h]	IC50 (C8166 [6]) [µg/mL]	SMILES	IC50 [7] [µg/mL]	IC50 (MT4 [8]) [µg/mL]	IC50 (MT4 [9]; [10]) [µg/mL]	IC50 (MT4 [9]; mt4) [µg/mL]
0.0273	0.0012 (≈ 0.00328 µM)	< 0.25	0.0004 (≈ 0.00109 µM)	< 0.25	0.0002 (≈ 0.000547 µM)	O=C(COc1ccc(Cl)cc1C(=O)c1ccccc1)Nc1ccccc1	> 0.005			
0.436			< 0.01			O=C(COc1ccc(Cl)cc1C(=O)c1cccnc1)Nc1ccccc1	10 (≈ 27.3 µM)			
0.162	> 5	3.5	0.7 (≈ 1.8 µM)	< 0.25	> 50	O=C(COc1ccc(Cl)cc1C(=O)c1ccccc1)c1cc2ccccc2[nH]1	10 (≈ 25.7 µM)			
0.753	0.0029 (≈ 0.00624 µM)	1.8	0.0044 (≈ 0.00946 µM)	4.75	0.016 (≈ 0.0344 µM)	Cc1cc(OCCCN(C)C)ccc1NC(=O)Cc1ccc(Cl)cc1C(=O)c1ccccc1	> 0.5			
0.443			0.21 (≈ 0.466 µM)			CN(C)CCCOc1ccc(NC(=O)Cc2ccc(Cl)cc2C(=O)c2ccccc2)cc1	10 (≈ 22.2 µM)			
32.9			> 100			O=C(COc1ccc(Cl)cc1C(=O)c1ccccc1)Cc1ccccc1	> 100			
> 104						Cc1cc(OCCCN(C)C)cc(C)c1NC(=O)Cc1ccc(Cl)cc1C(=O)c1ccccc1				
0.936			> 10			CCN(CC)CCOc1ccc(NC(=O)COc2ccc(Cl)cc2C(=O)c2ccccc2)cc1	10 (≈ 20.8 µM)			
> 250						O=C(COc1c(Cl)cc(Cl)cc1C(=O)c1ccccc1)Nc1ccccc1				
> 222						Cc1cc(OCCCN(C)C)ccc1NC(=O)c1ccc(Cl)cc1C(=O)c1ccccc1				
0.208	< 0.0005	> 2	< 0.01	< 0.25	0.0009 (≈ 0.00193 µM)	CN(C)CCCOc1ccc(NC(=O)COc2ccc(Cl)cc2C(=O)c2ccccc2)cc1	> 0.5			
6.35	0.032 (≈ 0.0812 µM)	> 6	0.028 (≈ 0.0711 µM)	2.8	0.05 (≈ 0.127 µM)	Cc1ccccc1CNC(=O)COc1ccc(Cl)cc1C(=O)c1ccccc1	10 (≈ 25.4 µM)			
> 284						O=C(c1ccccc1)c1cc(Cl)ccc1OCCNc1ccccc1				
5.22			0.21 (≈ 0.438 µM)			CCc1cc(OCCCN(C)C)ccc1NC(=O)Cc1ccc(Cl)cc1C(=O)c1ccccc1	10 (≈ 20.9 µM)			
13.2	0.013 (≈ 0.0273 µM)		< 0.01		0.05 (≈ 0.105 µM)	CCN(CC)CCOc1ccc(NC(=O)COc2cc(OC)ccc2C(=O)c2ccccc2)cc1	5 (≈ 10.5 µM)			
